Among the data in patent US20040023972A1, “Use of substituted imidazo[1,2-a]-pyridin-, -pyrimidin-and-pyrazin-3-yl-amine derivatives in the preparation of medicaments for inhibiting NOS” (Gruenenthal GmbH, priority 2000, published 2004) are inhibition values, retold here.

Structures are written as SMILES.

The target in the test is T1, NO synthase (Rattus norvegicus, UniProt P29476).
T1 construct: the supernatant was then removed by decantation and frozen in portions at −80° C; from tissue; host or cells: rat cerebellum, 20,000 g supernatant of homogenate
As to the kind of experiment: HTS-NOS assay (NOS assay): conversion of radioactive arginine, cation-exchanger filter plate. The settings on record: read-out: HTS-NOS assay: % inhibition (10 μM). It is filed as biochemical. The method, boiled down:
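Rat cerebellum supernatant as NOS source, incubated with radiolabelled arginine plus cofactors including NADPH at 25 °C for 5-60 min depending on enzyme activity. Unconverted arginine was trapped on a cation-exchange filter plate, citrulline washed out, and bound arginine counted by scintillation; % inhibition versus no-compound reactions.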
On to `CC(=O)N(c1c(-c2cccnc2)nc2cc(C)ccn12)C1CCCCC1` [Example 187, N-cyclohexyl-N-(7-methyl-2-pyridin-3-yl-imidazo[1,2-a]pyridin-3-yl)-acetamide], for which the inhibition (in general, how much of the control response was suppressed) at 10 µM was found to be 67%.
The figure for `CC(=O)N(c1c(-c2ccc(C3OCCO3)o2)nc2cc(C)cc(C)n12)C(C)(C)CC(C)(C)C` [Example 188, N-[2-(5-[1,3]dioxolan-2-yl-furan-2-yl)-5,7-dimethyl-imidazo[1,2-a]pyridin-3-yl]-N-(1,1,3,3-tetramethyl-butyl)-acetamide] is 50%.
Then `CC(=O)N(c1c(C)cccc1C)c1c(-c2cc3ccccc3o2)nc2cc(C)cc(C)n12` [Example 189, N-(2-benzofuran-2-yl-5,7-dimethyl-imidazo[1,2-a]pyridin-3-yl)-N-(2,6-dimethylphenyl)-acetamide], with 63%.
With `CC(=O)N(c1c(-c2ccco2)nc2cc(C)ccn12)C(C)(C)C` [Example 190, N-tert-butyl-N-(2-furan-2-yl-7-methyl-imidazo[1,2-a]pyridin-3-yl)-acetamide], the inhibition at 10 µM was 69%.
Then `CC(=O)N(c1c(-c2ccccn2)nc2cc(C)ccn12)C(C)(C)C` [Example 191, N-tert-butyl-N-(7-methyl-2-pyridin-2-yl-imidazo[1,2-a]pyridin-3-yl)-acetamide], with 57%.
For `CC(=O)N(c1c(-c2cccnc2)nc2cc(C)cc(C)n12)C1CCCCC1` [Example 192, N-cyclohexyl-N-(5,7-dimethyl-2-pyridin-3-yl-imidazo[1,2-a]pyridin-3-yl)-acetamide], the inhibition at 10 µM is 72%.
The figure for `CC(=O)N(c1c(-c2cccc(Cl)c2Cl)nc2cc(C)cc(C)n12)C(C)(C)CC(C)(C)C` [Example 193, N-[2-(2,3-dichloro-phenyl)-5,7-dimethyl-imidazo[1,2-a]pyridin-3-yl]-N-(1,1,3,3-tetramethyl-butyl)-acetamide] is 55%.
`COc1cccc(-c2nc3cc(C)cc(C)n3c2N(C(C)=O)C(C)(C)CC(C)(C)C)c1OC` [Example 194, N-[2-(2,3-dimethoxy-phenyl)-5,7-dimethyl-imidazo[1,2-a]pyridin-3-yl]-N-(1,1,3,3-tetramethyl-butyl)-acetamide]: the inhibition at 10 µM worked out at 59%.
The figure for `CC(=O)N(c1c(C)cccc1C)c1c(-c2cccc(Oc3ccc(Cl)cc3)c2)nc2ccccn12` [Example 195, N-{2-[3-(4-chloro-phenoxy)-phenyl]-imidazo[1,2-a]pyridin-3-yl}-N-(2,6-dimethyl-phenyl)-acetamide] is 54%; for `CC(=O)N(c1c(-c2ccc(C3OCCO3)o2)nc2cc(C)ccn12)C(C)(C)CC(C)(C)C` [Example 196, N-[2-(5-[1,3]dioxolan-2-yl-furan-2-yl)-7-methyl-imidazo[1,2-a]pyridin-3-yl]-N-(1,1,3,3-tetramethyl-butyl)-acetamide] it is 54%.
The figure for `CC(=O)N(c1c(-c2ccc(C(=O)O)o2)nc2cc(C)cc(C)n12)C1CCCCC1` [Example 197, 5-[3-(acetyl-cyclohexyl-amino)-5,7-dimethyl-imidazo[1,2-a]pyridin-2-yl]-furan-2-carboxylic acid] is 70%; for `CC(=O)N(c1c(-c2ccc([N+](=O)[O-])o2)nc2cc(C)ccn12)C(C)(C)C` [Example 198, N-tert-butyl-N-[7-methyl-2-(5-nitro-furan-2-yl)-imidazo[1,2-a]pyridin-3-yl]-acetamide] it is 54%; for `COc1ccccc1-c1nc2cc(C)ccn2c1N(C(C)=O)C(C)(C)CC(C)(C)C` [Example 199, N-[2-(2-methoxy-phenyl)-7-methyl-imidazo[1,2-a]pyridin-3-yl]-N-(1,1,3,3-tetramethyl-butyl)-acetamide] it is 57%.
The figure for `CC(=O)N(c1c(-c2ccc(C)o2)nc2ccccn12)C(C)(C)CC(C)(C)C` [Example 200, N-[2-(5-methyl-furan-2-yl)-imidazo[1,2-a]pyridin-3-yl]-N-(1,1,3,3-tetramethylbutyl)-acetamide] is 58%.
